Measurements taken from article PMC3904085 (Frontiers in Neuroscience, 2014).

Target: T1, rat OX1 receptors (Rattus norvegicus, UniProt P56718)
T1 sequence (P56718 1-416): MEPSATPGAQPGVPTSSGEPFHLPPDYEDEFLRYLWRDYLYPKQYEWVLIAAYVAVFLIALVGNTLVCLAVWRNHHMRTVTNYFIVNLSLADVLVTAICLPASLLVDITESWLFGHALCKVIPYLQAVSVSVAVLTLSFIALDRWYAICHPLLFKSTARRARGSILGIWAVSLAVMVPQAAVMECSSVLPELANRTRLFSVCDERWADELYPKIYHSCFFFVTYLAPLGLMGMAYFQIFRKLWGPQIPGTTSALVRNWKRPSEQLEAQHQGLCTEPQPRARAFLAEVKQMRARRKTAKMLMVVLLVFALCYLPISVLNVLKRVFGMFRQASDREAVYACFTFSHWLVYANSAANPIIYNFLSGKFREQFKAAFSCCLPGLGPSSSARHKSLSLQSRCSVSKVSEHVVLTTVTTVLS
Assay: cell-based
Method: Recombinant human OX1 and OX2 receptors were stably expressed in HEK293 cells, or rat recombinant OX1 and OX2 receptors stably expressed in AV12 cells, and assessed for intracellular calcium mobilization using Fluo-3 dye (Molecular Probes, Eugene, OR). […] It was further diluted to 8 mM in 2.5 mM probenecid loading buffer which was made as described below. The human cell line was grown in DMEM/F-12 (3:1) supplemented with 10% FBS (heat-inactivated), 20 mM HEPES, 1% Penn/Strep, and 4 μg/ml Blasticidin (35,000 cells/well). The rat cell line was grown in DMEM supplemented with 10% FBS (heat-inactivated), 20 mM HEPES, 1% Penn/Strep, 4 μg/ml Blasticidin, and 1 mM sodium pyruvate (60,000 cells/well). […] Finally, plates were read on a fluorescence imaging plate reader (FLIPR; Molecular Devices, LLC, Sunnyvale, CA) instrument with a 50 μl addition of antagonist; cells were placed in the dark at room temperature for an additional 15 min; then read on FLIPR instrument with a 100 μl addition of an EC70 concentration of orexin A (for a total volume of 200 μl). […] Kb-values were calculated based on 10-point dilution curves using ActivityBase templates (ID Business Solutions, Ltd., Guildford, Surrey, UK). […]

Structure (SMILES): CNC(=O)[C@@H](c1ccccc1)N1CCc2cc(OC)c(OC)cc2[C@@H]1CCc1ccc(C(F)(F)F)cc1 [Almorexant (S)]
- Kb: 3.2 ± 0.7 nM
